One data set concerns the target T1, topoisomerase I (Homo sapiens, UniProt P11387).
T1 sequence (P11387 1-765): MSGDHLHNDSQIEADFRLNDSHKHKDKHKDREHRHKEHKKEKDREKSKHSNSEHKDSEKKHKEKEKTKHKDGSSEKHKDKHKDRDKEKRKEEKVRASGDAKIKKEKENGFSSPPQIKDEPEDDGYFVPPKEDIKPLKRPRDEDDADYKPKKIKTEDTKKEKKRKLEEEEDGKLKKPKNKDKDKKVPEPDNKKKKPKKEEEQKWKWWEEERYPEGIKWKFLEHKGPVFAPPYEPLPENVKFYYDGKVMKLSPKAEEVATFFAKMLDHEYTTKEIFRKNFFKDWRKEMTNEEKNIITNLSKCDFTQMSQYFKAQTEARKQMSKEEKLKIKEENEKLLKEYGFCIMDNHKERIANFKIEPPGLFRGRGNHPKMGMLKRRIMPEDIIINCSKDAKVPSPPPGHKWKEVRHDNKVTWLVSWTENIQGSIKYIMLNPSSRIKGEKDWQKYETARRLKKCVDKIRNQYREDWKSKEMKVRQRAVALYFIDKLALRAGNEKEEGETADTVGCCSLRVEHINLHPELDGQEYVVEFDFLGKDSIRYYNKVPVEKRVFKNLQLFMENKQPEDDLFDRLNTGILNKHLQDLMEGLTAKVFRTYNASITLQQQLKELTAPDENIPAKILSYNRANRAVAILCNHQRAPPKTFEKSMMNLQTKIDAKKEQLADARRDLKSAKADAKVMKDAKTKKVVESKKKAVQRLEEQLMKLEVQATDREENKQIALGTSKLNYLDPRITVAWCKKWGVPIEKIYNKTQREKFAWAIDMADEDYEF
In words: Topoisomerase I assay, cleavage of supercoiled pGEM9zf(−) DNA, gel electrophoresis. Type of data set: biochemical. The following applies: for topo I inhibitor, overall conclusion: from FIGS. 1 and 2.

Data set [1] deals with KB: human oral epidermoid carcinoma. Kind of data set: In vitro anticancer assay (cytotoxicity), solid tumor cells.
Data set [2] has as its system Hela: human cervix epitheloid carcinoma. Described as above.
For data set [3], the system named is NCI (NCI-H661): human lung large cell carcinoma. The description is as above.
The test system of data set [4] is Prostate Cancer cell lines. In words: NCI panel, average of cell lines. The settings on record: Homo sapiens, read-out: cytotoxicity GI50, average value of all the cancer cell lines.
In another data set the test system is Leukemia cell lines. In words: NCI panel, average of cell lines. The settings on record: Homo sapiens, read-out: cytotoxicity GI50, average value of all the cancer cell lines.
In the next data set the test system is Breast Cancer cell lines. Kind of data set: NCI panel, average of cell lines. The settings on record: Homo sapiens, read-out: cytotoxicity GI50, average value of all the cancer cell lines.
In the next data set the test system is Colon Cancer cell lines. In words: NCI panel, average of cell lines. The following applies: Homo sapiens, read-out: cytotoxicity GI50, average value of all the cancer cell lines.
For a further data set, the system named is CNS cancer cell SF-268. Kind of data set: Preliminary cytotoxicity test. Type of data set: cell-based, human.
For data set [5], the system named is Non-small cell Lung cancer cell NCI-H460. In words: Preliminary cytotoxicity test. Type of data set: cell-based, human.
The subject of a further data set is CNS Cancer cell lines. In words: NCI panel, average of cell lines. The following applies: Homo sapiens, read-out: cytotoxicity GI50, average value of all the cancer cell lines.
Another data set has as its system Melanoma cell lines. In words: NCI panel, average of cell lines. The following applies: Homo sapiens, read-out: cytotoxicity GI50, average value of all the cancer cell lines.
A further data set has as its system K-562 cells. Kind of data set: Cell cycle distribution by flow cytometry. The following applies: K-562, 72 hrs. The format is cell-based, human.
Data set [6] relates to Ovarian Cancer cell lines. In words: NCI panel, average of cell lines. The settings on record: Homo sapiens, read-out: cytotoxicity GI50, average value of all the cancer cell lines.
In data set [7] the test system is Non-Small Cell Lung Cancer cell lines. In words: NCI panel, average of cell lines. The following applies: Homo sapiens, read-out: cytotoxicity GI50, average value of all the cancer cell lines.
The next data set concerns Breast cancer cell MCF-7. In words: Preliminary cytotoxicity test. Type of data set: cell-based, human.
The subject of a further data set is Renal Cancer cell lines. Kind of data set: NCI panel, average of cell lines. The following applies: Homo sapiens, read-out: cytotoxicity GI50, average value of all the cancer cell lines.
A further data set has as its system Hep2,2,15. The following applies: Hep2,2,15, Table 1; cited from earlier work.
Another data set concerns KB cell. The following applies: Table 1; cited from earlier work.

“Also recorded” adds a separate entry of the source. Read-outs that look alike come from different tables or passages of the source. Marks after values point to notes of the source that are not given here.

Procedure for K-562 cells: Samples of 1×10^6 Hep G2 cells were plated on a 6 cm tissue culture dish, and the cells were allowed to recover 24 hrs before any treatment. Thereafter, DMSO or a test compound (1 μM, 10 μM or 50 μM) was added to the cells for 1 hr in complete medium at 37° C., washed twice with PBS, and incubated in fresh media for the incubation time. Cell were harvested with trypsin and washed twice with PBS. Samples were fixed in 70% ethanol and stored at 4° C. for at least 24 hrs and then washed once with McIlvaine's buffer (0.2M Na2HPO4, 0.1M citric acid, pH=7.5) and once again with PBS. Samples were stained with PI (propidium iodide) staining solution (PBS containing 100 μg/ml, RNase A and 10 μg/ml PI [Sigma]), processed on a Coulter Elite flow cytometry, and the data analyzed with the Mutiplus AV program.

As for `CC[C@@]1(O)C(=O)OCc2c1cc1n(c2=O)Cc2cc3ccccc3nc2-1` [camptothecin, reference compound], the “inhibition of topo I” value on topoisomerase I is “less topo I inhibitory activity; also recorded: observable inhibition of topo I”.

In general, IC50 refers to the concentration that inhibits the measured activity by half. As to `CCCCCCC#C/C=C\C#Cc1ccc([N+](=O)[O-])cc1` [Compound 21, 4-nitro-1-(3-(Z)-dodecen-1,5-diynyl)benzene], the half-inhibitory concentration (IC50) in data set [1] (Homo sapiens, read-out: IC50 Values of Cytotoxicities) is more than 20 µg/mL.

Take `CCCCCC#Cc1ccccc1C#Cc1ccccc1C#N` [Compound 10, 2-(2-(2-Heptynylphenyl)ethynyl)benzonitrile]: the “IC50 Values of Cytotoxicities” value in data set [1] and in data set [2] was “— (“—” means IC50 > 20 μg/ml)” in each case.

As to `CCCCC#Cc1ccccc1C#Cc1ccccc1C#N` [Compound 9, 2-(2-(2-Hexynylphenyl)ethynyl)benzonitrile], the “IC50 Values of Cytotoxicities” value in [3] is recorded as “— (“—” means IC50 > 20 μg/ml)”.

For the molecule `N#Cc1ccccc1C#CC=CC#Cc1ccccc1N` [Compound 32, 2-[6-(o-anilinyl)-3-hexen-1,5-diynyl]benzonitrile], the GI50 in data set [4] worked out at 3.13 µM; in the data set with Leukemia cell lines, 0.43 µM; in the data set with Breast Cancer cell lines, 2 µM; with Colon Cancer cell lines it was 0.47 µM; with CNS Cancer cell lines, 9.44 µM; in the data set with Melanoma cell lines, 0.77 µM. For the same molecule, the GI50 was 1.55 µM in data set [6], 1.7 µM in data set [7] and 0.66 µM with Renal Cancer cell lines. In addition, the values for the Growth percentage (in the data set on CNS cancer cell SF-268; in [5]; with Breast cancer cell MCF-7) were 27* %, 8* % and 36%, respectively. For the same molecule, the “accumulation of G2/M stage cells” value in the data set on K-562 cells is given as “an accumulation of G2/M stage cells”.

“2-(6-(2-thioanisyl)-3-hexen-1,5-diynyl)benzonitrile [Compound 31]”: the Growth percentage was determined as 164% with CNS cancer cell SF-268, 100% in [5] and 62% in the data set with Breast cancer cell MCF-7.

In the case of `CCCCCC#C/C=C\C#Cc1ccccc1C#N` [Compound 4, 2-(3(Z)-Undecen-1,5-diynyl)benzonitrile], the IC50 in the data set with Hep2,2,15 was more than 10 µM; in the data set on KB cell, less than 0.01 µM.

As to `CCCCCCC#C/C=C\C#Cc1cccc(C(F)(F)F)c1` [Compound 19, 3-(3-(Z)-Dodecen-1,5-diynyl)trifluoromethylbenzene], in [2], the “IC50 Values of Cytotoxicities” value is on record as “— (“—” means IC50 > 20 μg/ml)”.

With `N#Cc1ccccc1C#Cc1ccccc1C#CCCCOC1CCCCO1` (stereo not shown) [Compound 8], the “inhibition of topo I” value against topoisomerase I (0.87 μM compound) is given as “untwisting DNA was revealed”; against topoisomerase I (8.7 μM compound), “no Topo I inhibition; also recorded: untwisting DNA was revealed”; against topoisomerase I (87 μM compound), “no Topo I inhibition; also recorded: untwisting DNA was revealed”. In data set [3], the “IC50 Values of Cytotoxicities” value was “— (“—” means IC50 > 20 μg/ml)”.

Regarding `N#Cc1ccccc1C#CC=CC#Cc1cccs1` [Compound 29, 2-(6-(2-thienyl)-3-hexen-1,5-diynyl)benzonitrile], the Growth percentage in the data set with CNS cancer cell SF-268 stood at 96%; in data set [5], 34%; in the data set on Breast cancer cell MCF-7, 49%.

`Cc1ccc(C#CC=CC#Cc2ccccc2C#N)cc1` [Compound 28, 2-(6-(4-tolyl)-3-hexen-1,5-diynyl)benzonitrile]: the values for the Growth percentage (in the data set on CNS cancer cell SF-268; in data set [5]; in the data set on Breast cancer cell MCF-7) were 105%, 96% and 80%, respectively.

In the case of `N#Cc1ccccc1C#C/C=C\C#CCOC1CCCCO1` (stereo not shown) [Compound 1, 2-(7-(Tetrahydropyranyloxy)-3(Z)-hepten-1,5-diynyl)-benzonitrile], the IC50 with Hep2,2,15 was more than 10 µM. The “IC50 Values of Cytotoxicities” value in data set [3] is listed as “—* (“—” means IC50 > 20 μg/ml)”.

Take `N#Cc1ccccc1C#CC=CC#Cc1ccccn1` [Compound 27, 2-(6-(2-pyridinyl)-3-hexen-1,5-diynyl)benzonitrile]: the GI50 in data set [4] is 21.2 µM; with Leukemia cell lines, 12.8 µM; in the data set with Breast Cancer cell lines, 14.3 µM; in the data set with CNS Cancer cell lines, 20.9 µM; in the data set on Melanoma cell lines it was 14.2 µM; in data set [6], 27.3 µM. Besides, the GI50 came out at 19.6 µM in data set [7] and 21.7 µM in the data set with Renal Cancer cell lines. Also, the Growth percentage is listed as 83% in the data set on CNS cancer cell SF-268, 23* % in data set [5] and 49% in the data set on Breast cancer cell MCF-7. Further, the “accumulation of G2/M stage cells” value in the data set with K-562 cells is given as “an accumulation of G2/M stage cells”.

As for `FC(F)(F)c1ccc(C#Cc2ccccc2C#Cc2ccc(C(F)(F)F)cc2)cc1` [Compound 42], the Growth percentage was 55% with CNS cancer cell SF-268, 78% in [5] and 37% in the data set on Breast cancer cell MCF-7.

Turning to `CCCCCCC#C/C=C\C#Cc1ccc(C(F)(F)F)cc1` [Compound 18, 4-(3-(Z)-Dodecen-1,5-diynyl)trifluoromethylbenzene], the “topo I inhibitor, overall conclusion” value on topoisomerase I is reported as “displayed topo I inhibitory activities”.

As for “2-(6-(2-xylenyl)-3-hexen-1,5-diyne)benzonitrile [Compound 24]”, the Growth percentage worked out at 111% in the data set with CNS cancer cell SF-268, 129% in [5] and 101% in the data set with Breast cancer cell MCF-7.

`COc1ccc(C#CC=CC#Cc2ccccc2C#N)cc1` [Compound 25]: the Growth percentage was found to be 91% in the data set with CNS cancer cell SF-268, 48% in data set [5] and 90% in the data set with Breast cancer cell MCF-7.

Regarding `N#Cc1ccccc1C#Cc1ccccc1C#CCOC1CCCCO1` (stereo not shown) [Compound 7, 2-(2-(3-Tetrahydro-pyranyl-5-oxy-1-propynylphenyl)ethynyl)benzonitrile], the “inhibition of topo I” value against topoisomerase I (0.87 μM compound) was “untwisting DNA was revealed”; on topoisomerase I (8.7 μM compound), “no Topo I inhibition; also recorded: untwisting DNA was revealed”; at topoisomerase I (87 μM compound), “no Topo I inhibition; also recorded: untwisting DNA was revealed”. The “IC50 Values of Cytotoxicities” value in data set [3] is “— (“—” means IC50 > 20 μg/ml)”.

For the molecule `CCCCC#C/C=C\C#Cc1ccccc1` [Compound 6, (3Z)-Decen-1,5-diynylbenzene], on topoisomerase I, the “topo I inhibitor, overall conclusion” value is recorded as “not Topo I inhibitors”.

As to `N#Cc1ccccc1C#CC=CC#Cc1ccc(N)cc1` [Compound 33, 2-[6-(p-anilinyl)-3-hexen-1,5-diynyl]benzonitrile], the Growth percentage amounted to 92% with CNS cancer cell SF-268, 94% in data set [5] and 100% in the data set on Breast cancer cell MCF-7.

Take `CCCCCCC#C/C=C\C#Cc1ccccc1C(=O)O` [Compound 22, 2-(3-(Z)-Dodecen-1,5-diynyl)benzoate]: the “IC50 Values of Cytotoxicities” value in data set [3] was “— (“—” means IC50 > 20 μg/ml)”.

In the case of `CCCCCCC#C/C=C\C#Cc1ccc(C#C/C=C\C#CCCCCCC)cc1` [Compound 11, 1,4-Bis-(3-(Z)-Dodecen-1,5-diynyl)benzene], on topoisomerase I, the “topo I inhibitor, overall conclusion” value is given as “not topo I inhibitors”.

For `CCCCCCC#C/C=C\C#Cc1ccc(-c2ccc(C#C/C=C\C#CCCCCCC)cc2)cc1` [Compound 12, 4,4′-Bis-(3-(Z)-Dodecen-1,5-diynyl)biphenyl], on topoisomerase I, the “topo I inhibitor, overall conclusion” value is on record as “not topo I inhibitors”.

In the case of `CCCCC#C/C=C\C#Cc1ccccc1C#N` [Compound 3, 2-(3(Z)-Decen-1,5-diynyl)benzonitrile], the IC50 in the data set on KB cell is less than 0.01 µM.
